From patent US20190183900A1, “COMPOSITION FOR PROLIFERATION, DIFFERENTIATION PROMOTION, OR SENESCENCE INHIBITION OF STEM CELLS, CONTAINING JAK1 INHIBITOR AS ACTIVE INGREDIENT” (UNIVERSITY OF ULSAN FOUNDATION FOR INDUSTRY COOPERATION, priority 2016, published 2019) come the findings set out here.

For assay [1], the system named is stem cells. The assay can be described thus: real time PCR of senescence, stemness, proliferation and TLR3 signaling genes. Type of assay: cell-based. To be noted: pre-treatment before poly IC. The procedure:
The present inventors have confirmed the expression of proteins involved in proliferation and differentiation promotion of stem cell and stemness increase according to tofacitinib treatment using real time PCR. For this, cells were treated with TRIzol reagent to lyse the cells, and treated with chloroform to separate the aqueous solution layer containing the RNA. The separated aqueous solution was treated with isopropanol to precipitate RNA and centrifuged to extract RNA only. […] Real-time PCR was performed using the CFX Connect Real-Time PCR Detection System (Bio-rad) and primers used were shown in Table 1. Relative mRNA expression levels were analyzed using the comparative threshold cycles (2-^Ct) method.
(In general: Quantitative PCR measures a nucleic acid by following its amplification.)

Assay [2] has as its system stem cells. The assay can be described thus: Western blotting of senescence, stemness, proliferation and TLR3 signaling proteins. The class given is cell-based. To be noted: JAK1 inhibitor pretreated 2 hours before poly IC 1 ug/ml, 2 days after poly IC. (In general: Immunoblotting shows a protein as a band on a membrane.)
Method: More specifically, the stem cells were plated in a 10 cm dish (3×10^5 cells/dish) and treated with poly IC (1 ug/ml) one day later. […] After 2 days of poly IC treatment, western blotting was performed for analyzing the protein expression. For this, the cells were treated with RIPA lysis buffer (1% Np-40, 0.5% Na-deoxycholate, 0.4% SDS, 0.15 M NaCl, 0.05 M Tris-HCl (pH 8), Halt Protease and Phosphatase Inhibitor Cocktail (78440, Thermo Scientific)) and reacted in ice for 30 minutes to extract the cells. The cell lysate was centrifuged and the supernatant was collected and quantified using bicinchoninic acid protein assay kit (23225, Thermo Scientific). 10 ug of the protein extract was separated by 12% SDS-PAGE and transferred to a nitrocellulose membrane. After reacting for 1 h in blocking buffer (0.1% Tween 20, 5% BSA in tris buffered saline) at room temperature (RT), the primary antibody was treated and reacted overnight at 4° C. […] After washing three times with TBST solution, peroxidase-conjugated secondary antibody was reacted for 1 hour at RT and protein bands were analyzed using C-DiGit Blot Scanner (LI-COR).
The test system of assay [3] is stem cells. The assay can be described thus: BrdU assay of cell survival rate after poly IC. The class given is cell-based. To be noted: tofacitinib 1 ug/ml pretreated 2 hours before poly IC 1 ug/ml; BrdU ELISA 2 days after poly IC. A general note: Incorporation of labelled thymidine or its analogues reports DNA synthesis.
Method: More specifically, cells were plated in 96 wells (1×10^3 cells/well) and treated with poly IC (1 μg/ml) one day later. […] After 2 days of poly IC treatment, cell survival rate was measured using BrdU cell proliferation ELISA (11647229001, Roche). For this, the BrdU labeling solution was treated at 10 μl/well for 4 hours at 37° C. Then, fixdenat buffer was treated by 200 ul/well for 30 minutes to immobilize the cells and reacted with 100 ul/well of anti BrdU-POD solution for 90 minutes. Thereafter, 100 ul of the substrate solution was treated, the OD value at 370 nm wavelength was measured by ELISA, and the cell survival rate was plotted.
Assay [4] relates to stem cells. The assay can be described thus: SA-b-gal staining of poly IC-induced inflammatory senescence. The class given is cell-based. The following applies: tofacitinib 1 ug/ml pretreated 2 hours before poly IC 1 ug/ml; measured 2 days after poly IC.
Method: More specifically, stem cells were plated in 6 wells (2×10^4 cells/well) and treated with poly IC (1 ug/ml) one day later. […] After 2 days of the poly IC treatment, the degree of senescence was measured using senescence cells histochemical staining kit (CS0030, Sigma). For this, the plate was washed twice with PBS and fixed with fixation buffer (2% formaldehyde, 0.2% glutaraldehyde, 7.04 mM Na2HPO4, 1.47 mM KH2PO4, 0.137 M NaCl, and 2.68 mM KCl) for 6 minutes and reacted with staining buffer (6 mM Potassium Ferricyanide, 6 mM Potassium Ferrocyanide, 1 mg/ml X-gal Solution in phosphate buffer (pH 6)) at 37° C. for 24 hours. The number of b-galactoxidase-positive cells was measured by microscopic observation and the degree of cellular senescence was shown in a graph.
Assay [5] deals with stem cells. The assay can be described thus: real time PCR of TGF-b and HGF, proteins that inhibit T cell activity. The class given is cell-based. The following applies: pre-treatment of tofacitinib before poly IC.
Method: For this, cells were treated with TRIzol reagent to lyse the cells, and treated with chloroform to separate the aqueous solution layer containing the RNA. The separated aqueous solution was treated with isopropanol to precipitate RNA and centrifuged to extract RNA only. The extracted RNA was quantified using nanodrop. 2 ug of RNA was synthesized using TOPscript cDNA synthesis kit (RT200, Enzynomics) as a cDNA mixture and used as a template for real time PCR. […] Relative mRNA expression levels were analyzed using the comparative threshold cycles (2-^Ct) method.
The subject of assay [6] is stem cells. To be noted: FACS analysis and real time PCR; pre-treatment of tofacitinib before poly IC.
Method: More specifically the stem cells were treated with trypsin/EDTA and separated into single cells and mouse anti-human HLA-ABC (555553, BD Biosciences) was reacted at RT for 1 hour and washed three times and then analyzed using a FACS calibur instrument (BD Biosciences).

`O=C(Nc1nc2cccc(-c3ccc(CN4CCS(=O)(=O)CC4)cc3)n2n1)C1CC1` [filgotinib]: in the assay with stem cells [1], the “increase in expression of TLR3 signaling-related proteins (TLR3, IL6)” value (shortened to “increase in expression”) is listed as “less increased”; the “mRNA expression of the protein associated with senescence (PCNA), stemness (EZH2, BMI-1) and proliferation (survivin, CyclinD1)” value is recorded as “less decreased”. Further, in the assay with stem cells [2], the “expression of proteins associated with senescence (PCNA), stemness (EZH2, BMI-1), proliferation (survivin, CyclinD1)” value is listed as “less decreased” and the “increase in expression” value is listed as “less increased”.
On to `C[C@@H]1CCN(C(=O)CC#N)C[C@@H]1N(C)c1ncnc2[nH]ccc12` [tofacitinib], for which, in the assay on stem cells [1], the “increase in expression” value is “less increased”; the “mRNA expression of the protein associated with senescence (PCNA), stemness (EZH2, BMI-1) and proliferation (survivin, CyclinD1)” value was “less decreased”. Further, in the assay on stem cells [2], the “expression of proteins associated with senescence (PCNA), stemness (EZH2, BMI-1), proliferation (survivin, CyclinD1)” value is given as “less decreased” and the “increase in expression” value is reported as “less increased”. The “cell survival rate by cellular senescence induced by poly IC” value in the assay on stem cells [3] was “less decreased”. In addition, in the assay with stem cells [4], the “inflammatory senescence induced by poly IC (b-galactoxidase-positive cells)” value was “significantly reduced”. Besides, the “decrease of TGF-b and HGF by treatment of poly IC” value in the assay with stem cells [5] is reported as “less decreased”. Besides, the “increase of immunogenicity-related proteins HLA-A and HLA-B by poly IC treatment” value in the assay with stem cells [6] is recorded as “less increased”.
